Values of other authors, collected in patent US8580852B2, “2-oxamide inhibitors of phospholipase A2 activity and cellular arachidonate release based on dipeptides and pseudopeptides” (The Regents of the University of California, priority 2009, dated 2013).
Marks after values point to notes of the source that are not given here.

How the values were obtained:
[1] = target: T1, GIVA cPLA2 (Homo sapiens, UniProt P47712); conditions: reference inhibitors; data taken from ref 15; cited from earlier work
T1 sequence (P47712 1-749): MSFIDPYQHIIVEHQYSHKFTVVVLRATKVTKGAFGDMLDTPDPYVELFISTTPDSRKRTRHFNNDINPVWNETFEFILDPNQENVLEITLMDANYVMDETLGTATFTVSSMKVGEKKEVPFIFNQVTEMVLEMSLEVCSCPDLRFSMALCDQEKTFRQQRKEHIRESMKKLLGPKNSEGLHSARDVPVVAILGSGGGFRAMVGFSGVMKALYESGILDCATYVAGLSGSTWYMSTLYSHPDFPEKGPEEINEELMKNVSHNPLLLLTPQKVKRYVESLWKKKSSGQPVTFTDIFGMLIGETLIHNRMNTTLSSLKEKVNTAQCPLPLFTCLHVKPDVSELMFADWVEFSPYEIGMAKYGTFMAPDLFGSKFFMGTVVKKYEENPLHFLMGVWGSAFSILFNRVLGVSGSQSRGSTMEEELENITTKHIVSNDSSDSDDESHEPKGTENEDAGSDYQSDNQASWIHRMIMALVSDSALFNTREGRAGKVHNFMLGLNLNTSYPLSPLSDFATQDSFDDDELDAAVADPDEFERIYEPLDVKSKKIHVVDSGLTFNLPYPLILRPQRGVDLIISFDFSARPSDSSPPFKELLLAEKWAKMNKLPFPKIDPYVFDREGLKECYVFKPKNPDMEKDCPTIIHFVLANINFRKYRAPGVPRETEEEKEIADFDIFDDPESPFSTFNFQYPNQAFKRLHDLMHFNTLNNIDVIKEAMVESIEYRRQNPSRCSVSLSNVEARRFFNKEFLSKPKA

[2] = target: T2, GVIA iPLA2 (Homo sapiens, UniProt O60733); conditions: reference inhibitors; data taken from ref 15; cited from earlier work
T2 sequence (O60733 1-806): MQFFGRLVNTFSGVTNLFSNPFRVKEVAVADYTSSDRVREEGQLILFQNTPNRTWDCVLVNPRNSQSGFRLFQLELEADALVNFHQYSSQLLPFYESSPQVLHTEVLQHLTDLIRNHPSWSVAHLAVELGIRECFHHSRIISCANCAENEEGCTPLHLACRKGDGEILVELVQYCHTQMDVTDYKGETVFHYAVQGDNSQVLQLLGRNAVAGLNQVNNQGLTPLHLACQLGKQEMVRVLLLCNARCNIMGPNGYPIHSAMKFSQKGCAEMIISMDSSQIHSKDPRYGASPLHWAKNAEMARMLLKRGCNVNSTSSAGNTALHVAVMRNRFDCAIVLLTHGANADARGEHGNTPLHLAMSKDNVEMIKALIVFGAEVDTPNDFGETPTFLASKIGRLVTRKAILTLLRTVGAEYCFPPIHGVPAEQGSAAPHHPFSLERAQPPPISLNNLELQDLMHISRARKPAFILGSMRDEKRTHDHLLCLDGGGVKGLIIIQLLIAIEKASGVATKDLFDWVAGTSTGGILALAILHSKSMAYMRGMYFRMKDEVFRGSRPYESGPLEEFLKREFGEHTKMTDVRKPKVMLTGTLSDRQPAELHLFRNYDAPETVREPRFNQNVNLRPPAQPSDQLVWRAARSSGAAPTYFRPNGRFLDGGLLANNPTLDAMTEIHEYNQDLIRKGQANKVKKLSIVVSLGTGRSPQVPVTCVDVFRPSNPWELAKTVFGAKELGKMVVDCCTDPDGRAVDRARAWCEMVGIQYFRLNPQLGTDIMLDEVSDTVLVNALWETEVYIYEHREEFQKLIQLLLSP

## CCCCCCCCCCCCCCC(=O)C(=O)NCCCC(=O)OCC [AX048, reference compound]
[1]
  GIVA cPLA2 X1(50): 0.022 ± 0.009^b mole fraction
[2]
  GVIA iPLA2 X1(50): 0.027 ± 0.009^b mole fraction
